Each structure is given as a SMILES string.

Data set [1] concerns the target TH (tyrosine hydroxylase) (Mus musculus (Mouse), UniProt P24529). The data set can be described thus: CNS phosphoprotein profile, nucleus accumbens: TH. The note with it: for increase in TH phosphorylation: Ser40, haloperidol at 2 mg/kg. The class given is in vivo, mice. The procedure: (§1) A comprehensive molecular phosphorylation study is also carried out to examine the central nervous system (CNS) profile of the compounds of Example 1 and Example 2. The extent of protein phosphorylation for selected key central nervous system proteins is measured in mice nucleus accumbens.
(§2) Mice were killed 30 minutes to 2 hours post-injection by focused microwave cranial irradiation, which preserves brain phosphoprotein as it exists at the time of death. Nucleus accumbens was then dissected from each mouse brain, sliced and frozen in liquid nitrogen. Samples were further prepared for phosphoprotein analysis via SDS-PAGE electrophoresis followed by phosphoprotein-specific immunoblotting, as described in Zhu H, et al., Brain Res. 2010 Jun. 25; 1342:11-23. Phosphorylation at each site was quantified, normalized to total levels of the protein (non-phosphorylated), and expressed as percent of the level of phosphorylation in vehicle-treated control mice.

Data set [2] is described as follows: in vivo. The note with it: mouse.
Data set [3] concerns Mice. The data set can be described thus: Mouse Marble-Burying Study (OCD Model). The class given is in vivo. The source says:
The marble burying test is used to measure repetitive and anxiety-related behavior in rodents. It is based on the observation that rats and mice will bury either harmful or harmless objects in their bedding, and it has been used as an animal model to measure the effect of pharmacological interventions in treatment of repetitive behavior disorders, such as OCD.
MPEP is a selective mGluR5 glutamate receptor antagonist. […] Mice in groups (1) are orally administered the vehicle, and mice in group (4) are given an intraperitoneal injection of MPEP just prior to the start of the test.
The test is conducted in rectangular cages with 4-5 cm of wood chip bedding in a room with the window shades lowered and the door closed to minimize distractions. Fifteen clean marbles are evenly spaced on top of the bedding in three rows of five marbles. One mouse is placed in each cage. The mouse and cage is left undisturbed for 30 minutes. At the end of the test, the mouse is removed and the number of marbles buried to at least ⅔ of their depth is counted.

The target of data set [4] is 5-HT2 receptor (Mus musculus (Mouse), UniProt P35363). The data set can be described thus: DOI-Induced Head Twitch Model in Mice. Format: in vivo. The settings on record: po, p.o. 0.5 hr before DOI, read-out: EC50 (mg/kg, p.o.) for reducing DOI-induced head twitches.
In data set [5] the test system is C57 mice. The data set can be described thus: Formalin Paw Test (Inflammatory Pain Model). The class given is in vivo.
The nature of data set [6]: in vivo. The note with it: rat, iv, 1 mg/kg.
Data set [7] relates to rats. The data set can be described thus: Pulmonary function in rats. The class given is in vivo. The settings on record: for RR (breaths/min): 60 minutes.
In data set [8] the target is D1 (Homo sapiens (Human), UniProt P21728). The note with it: read-out: Ki (nM) D1.
For data set [9], the target named is ERK2 (Mus musculus (Mouse), UniProt P63085). The experiment in a line: CNS phosphoprotein profile, nucleus accumbens: ERK2. Format: in vivo, mice. The note with it: 3 mg/kg. The method, then: as §1, §2
For data set [10], the target named is GluR1 (Mus musculus (Mouse), UniProt P23818). The experiment in a line: CNS phosphoprotein profile, nucleus accumbens: GluR1. Format: in vivo, mice. The settings on record: 3 mg/kg. The procedure: as §1, §2
GluR1, sequence (P23818 19-907 limits assumed): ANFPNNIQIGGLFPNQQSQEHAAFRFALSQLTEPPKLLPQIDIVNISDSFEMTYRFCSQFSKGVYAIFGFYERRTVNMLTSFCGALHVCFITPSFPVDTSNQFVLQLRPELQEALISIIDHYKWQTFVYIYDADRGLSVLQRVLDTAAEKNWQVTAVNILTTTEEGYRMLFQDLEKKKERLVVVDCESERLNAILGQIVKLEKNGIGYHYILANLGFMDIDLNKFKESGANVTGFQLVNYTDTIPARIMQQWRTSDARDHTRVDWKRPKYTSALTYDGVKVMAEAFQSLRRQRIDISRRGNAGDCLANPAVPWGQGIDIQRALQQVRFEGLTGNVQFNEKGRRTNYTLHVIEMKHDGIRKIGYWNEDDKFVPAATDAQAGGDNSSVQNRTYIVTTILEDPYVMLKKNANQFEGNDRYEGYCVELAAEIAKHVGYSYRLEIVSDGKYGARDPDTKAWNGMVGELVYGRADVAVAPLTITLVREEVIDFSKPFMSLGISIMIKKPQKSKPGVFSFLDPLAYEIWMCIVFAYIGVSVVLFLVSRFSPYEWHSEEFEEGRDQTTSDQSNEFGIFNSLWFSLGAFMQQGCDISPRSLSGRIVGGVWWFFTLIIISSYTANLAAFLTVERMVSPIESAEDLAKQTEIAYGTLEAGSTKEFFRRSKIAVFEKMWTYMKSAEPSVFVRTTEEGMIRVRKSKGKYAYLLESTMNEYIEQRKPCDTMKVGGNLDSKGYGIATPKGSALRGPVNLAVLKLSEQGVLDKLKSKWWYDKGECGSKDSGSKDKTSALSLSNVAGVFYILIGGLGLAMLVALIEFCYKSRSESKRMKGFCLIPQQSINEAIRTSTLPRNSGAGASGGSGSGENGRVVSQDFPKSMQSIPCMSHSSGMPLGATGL
Data set [11] has as its target D2 (Homo sapiens (Human), UniProt P14416). The data set can be described thus: biochemical. The note with it: read-out: maximum inhibition D2.
Data set [12] has as its target NR2B (Mus musculus (Mouse), UniProt Q01097). The experiment in a line: CNS phosphoprotein profile, nucleus accumbens: NR2B. The class given is in vivo, mice. The settings on record: 3 mg/kg, at 30-60 minutes. The method, then: as §1, §2
The subject of data set [13] is rats. The experiment in a line: Gastrointestinal motility, activated charcoal transit in rats. The note with it: morphine 5 mg/kg SC.
[14] abbreviates: Cmpd, PO 3.0 mg/kg, 30 min prior to formalin.
The mark [15] stands for this setting: Cmpd, SC 0.3 mg/kg, 30 min prior to formalin.
Where [16] appears, read: Cmpd, SC 1.0 mg/kg, 30 min prior to formalin.
[17] abbreviates: Cmpd, SC 3.0 mg/kg, 30 min prior to formalin.
The mark [18] stands for this setting: morphine 5 mg/kg SC, 30 min prior to formalin.

D2, sequence (P14416 with tags, fused parts or gaps limits assumed): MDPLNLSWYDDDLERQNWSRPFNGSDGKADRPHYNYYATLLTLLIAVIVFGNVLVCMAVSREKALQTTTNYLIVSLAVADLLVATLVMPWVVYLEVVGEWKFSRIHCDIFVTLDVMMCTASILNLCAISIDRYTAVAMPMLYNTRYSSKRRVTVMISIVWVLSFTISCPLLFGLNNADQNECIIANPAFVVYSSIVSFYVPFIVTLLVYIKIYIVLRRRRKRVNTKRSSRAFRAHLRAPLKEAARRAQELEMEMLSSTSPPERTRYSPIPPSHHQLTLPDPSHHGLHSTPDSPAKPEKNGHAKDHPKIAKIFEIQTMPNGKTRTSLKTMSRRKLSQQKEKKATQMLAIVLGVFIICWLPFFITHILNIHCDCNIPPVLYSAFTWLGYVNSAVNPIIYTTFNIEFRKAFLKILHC
NR2B, sequence (Q01097 27-1482 limits assumed): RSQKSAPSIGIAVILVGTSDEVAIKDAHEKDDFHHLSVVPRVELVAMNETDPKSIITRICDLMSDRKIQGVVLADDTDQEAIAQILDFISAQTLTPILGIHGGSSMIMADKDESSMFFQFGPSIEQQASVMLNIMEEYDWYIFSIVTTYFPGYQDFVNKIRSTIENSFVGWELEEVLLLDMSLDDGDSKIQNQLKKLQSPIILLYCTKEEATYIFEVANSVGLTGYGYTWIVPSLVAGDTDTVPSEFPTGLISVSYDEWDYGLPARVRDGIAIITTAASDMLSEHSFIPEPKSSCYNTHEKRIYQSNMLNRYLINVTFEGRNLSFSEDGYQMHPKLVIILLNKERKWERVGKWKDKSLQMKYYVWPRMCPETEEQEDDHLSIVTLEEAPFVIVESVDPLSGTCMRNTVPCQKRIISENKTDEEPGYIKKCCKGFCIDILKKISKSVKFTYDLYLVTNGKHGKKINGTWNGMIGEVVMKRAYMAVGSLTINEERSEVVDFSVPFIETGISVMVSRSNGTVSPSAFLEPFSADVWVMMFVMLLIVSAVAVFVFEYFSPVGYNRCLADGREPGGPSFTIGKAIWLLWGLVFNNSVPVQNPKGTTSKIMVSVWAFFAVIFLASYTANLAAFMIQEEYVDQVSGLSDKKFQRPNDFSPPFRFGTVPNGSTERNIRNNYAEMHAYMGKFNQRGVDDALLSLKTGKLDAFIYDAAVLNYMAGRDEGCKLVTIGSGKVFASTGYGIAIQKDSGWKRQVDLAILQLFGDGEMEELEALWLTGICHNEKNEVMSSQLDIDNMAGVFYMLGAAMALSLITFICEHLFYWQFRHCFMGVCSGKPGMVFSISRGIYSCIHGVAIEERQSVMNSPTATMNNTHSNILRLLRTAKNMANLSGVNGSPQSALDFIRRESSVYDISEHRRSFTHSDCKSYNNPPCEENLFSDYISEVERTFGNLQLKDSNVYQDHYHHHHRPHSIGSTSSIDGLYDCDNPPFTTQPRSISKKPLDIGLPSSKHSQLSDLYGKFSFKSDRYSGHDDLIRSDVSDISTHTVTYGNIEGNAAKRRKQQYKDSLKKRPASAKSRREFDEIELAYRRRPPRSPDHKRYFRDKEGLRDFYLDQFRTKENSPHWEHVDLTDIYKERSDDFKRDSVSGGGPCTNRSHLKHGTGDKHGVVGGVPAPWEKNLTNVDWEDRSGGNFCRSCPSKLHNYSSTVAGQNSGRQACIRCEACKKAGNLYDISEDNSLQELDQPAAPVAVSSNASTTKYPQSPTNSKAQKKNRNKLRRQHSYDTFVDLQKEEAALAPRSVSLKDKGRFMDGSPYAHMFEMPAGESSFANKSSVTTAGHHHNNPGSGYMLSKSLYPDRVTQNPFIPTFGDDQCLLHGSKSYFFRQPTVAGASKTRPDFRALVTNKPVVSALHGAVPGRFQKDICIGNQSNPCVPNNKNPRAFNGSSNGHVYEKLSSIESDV

For `O=C(CCCN1CCC(O)(c2ccc(Cl)cc2)CC1)c1ccc(F)cc1` [haloperidol], the “increase in TH phosphorylation” value in [1] is recorded as “greater than 400%”.

With `O=C1CN2c3c(cccc3[C@@H]3CN(CCCOc4ccc(F)cc4)CC[C@@H]32)N1` [Example 2, (6bR,10aS)-8-(3-(4-fluorophenoxy)propyl)-6b,7,8,9,10,10a-hexahydro-1H-pyrido[3′,4′:4,5]pyrrolo[1,2,3-de]quinoxalin-2(3H)-one], the Tmax – broadly, the time at which the peak concentration occurs – is 15 min in data set [2] (brain, po, 10 mg/kg); 60 min in [2] (brain, sc, 0.1 mg/kg); 15 min in data set [2] (plasma, po, 10 mg/kg); 30 min in data set [2] (plasma, sc, 0.1 mg/kg). Moreover, the “Marbles Buried” value in data set [3] (0.3 mg/kg orally 30 minutes prior, of fifteen marbles, 30 min) was determined as 9.3. Besides, in [4], the ED50 was 0.44 mg/kg. Moreover, the “Mean Behavior Rating (0-4), 0-10 Min” value in data set [5] (setting [14]) worked out at 0.9; in data set [5] (setting [16]), 1.3; in data set [5] (setting [17]), 0.8; in data set [5] (mouse, in vivo) it was 1.5. Further, the “Mean Behavior Rating (0-4), 0-6 min” value in data set [5] (setting [14]) is given as 1.5; in data set [5] (setting [15]), 2.3; in data set [5] (setting [16]), 1.9; in data set [5] (setting [17]), 1.3. The “Mean Behavior Rating (0-4), 11-40 min” value in data set [5] (setting [14]) came to 0.8; in data set [5] (setting [15]), 1.0; in [5] (setting [16]), 1.0; in [5] (setting [17]), 0.1. Besides, the “Mean Behavior Rating (0-4), 16-40 min” value amounted to 0.9 in data set [5] (setting [14]), 1.2 in data set [5] (setting [15]), 1.1 in data set [5] (setting [16]) and 0.1 in data set [5] (setting [17]). For the same compound, the bioavailability (commonly dose-corrected exposure relative to a reference, in per cent) in data set [6] is 100%. The “RR (breaths/min)” value in data set [7] (0.3 mg/kg s.c.) was determined as 181 breaths/min; in data set [7] (1.0 mg/kg s.c.) it was 203 breaths/min; in [7] (3.0 mg/kg s.c.), 190 breaths/min. Besides, in data set [7] (0.3, 1.0 and 3.0 mg/kg s.c., 0, 15, 60, 120, and 240 minutes), the “respiratory rate, tidal volume and minute volume compared to vehicle control” value is given as “no significant differences”.

Regarding `Cc1nc2n(c(=O)c1CCN1CCC(c3noc4cc(F)ccc34)CC1)CCCC2` [risperidone], in data set [1], the “increase in TH phosphorylation” value is “greater than 500%”.

Turning to `Cc1cccc(C#Cc2ccccc2)n1` [MPEP, 2-methyl-6-(phenylethynyl)pyridine, reference compound], in data set [3] (20 mg/kg intraperitoneal just prior to test, positive control), the “Marbles Buried” value is 0.2.

On to `O=C1CN2c3c(cccc3[C@@H]3CN(CCCC(=O)c4ccc(F)cc4)CC[C@@H]32)N1` [Example 1], for which the “effect on tyrosine hydroxylase phosphorylation at Ser40” value in [1] (3 mg/kg, at 30 minutes or 60 minutes) was “neither the compound of Example 1 nor of Example 2 has a significant effect”. Besides, the Ki (commonly the dissociation constant of the complex between target and ligand, obtained from inhibition or displacement) in data set [8] was found to be 22 nM. Besides, the ED50 in [4] came out at 0.23 mg/kg. In data set [9], the “ERK2 phosphorylation at Thr183 and Tyr185” value is listed as “slight decrease”. Further, the “GluR1 phosphorylation at Ser845” value in [10] is on record as “slight increase”. In addition, the inhibition (usually how much of the control response was suppressed) at […] in [11] turned out to be 47%. In addition, in data set [12], the “effect on NR2B phosphorylation at Tyr1472” value was “neither the compound of Example 1 nor of Example 2 has a significant effect”.

For `CN1CC[C@]23c4c5ccc(O)c4O[C@H]2[C@@H](O)C=C[C@H]3[C@H]1C5` [Morphine, morphine, reference compound], in data set [5] (setting [18]), the “Mean Behavior Rating (0-4), 0-10 Min” value is 1.1; the “Mean Behavior Rating (0-4), 0-6 min” value is reported as 1.7; the “Mean Behavior Rating (0-4), 11-40 min” value is listed as 0.2; the “Mean Behavior Rating (0-4), 16-40 min” value amounted to 0.2. The “reduction in gastric motility” value in [13] is ~50%.

The values above are taken from patent publication US12173004B2, “Pharmaceutical compositions comprising heterocycle fused gamma carboline prodrugs” (INTRA-CELLULAR THERAPIES, INC., priority 2017, dated 2024).
